Holding throughout (format): cell-based
The test system of one series is mouse TYR pre-mRNA. Put plainly: Exon skipping by nested PCR in B16F10 mouse melanoma cells. Conditions: 1 to 1,000 aM, 5 hours, untreated cells gave full-length and exons 2-3 skipped bands. On the procedure: [Cell Culture & ASO Treatment] B16F10 mouse melanoma cells (Cat. Number CRL-6475, ATCC) were maintained in DMEM (Dulbecco's modified Eagle's essential minimum medium) supplemented with 10% FBS, 1% streptomycin/penicillin, and 0.01 mg/ml bovine insulin. B16F10 cells grown in 60 mm culture dish containing 5 mL DMEM were incubated for 5 hours with “ASO 1M” at 0 (negative control), 1, 10,100 or 1000 aM.
[RNA Extraction & cDNA Synthesis by One-step PCR] Following an incubation for 5 hours, total RNA was extracted using “Universal RNA Extraction Kit” (Cat. Number 9767, Takara) according to the manufacturer's instructions. 200 ng of RNA template was used for a 25 μl reverse transcription reaction using Super Script® One-Step RT-PCR kit with Platinum® Taq polymerase (Cat. No. 10928-042, Invitrogen) against a set of exon-specific primers of [exon1_forward: (5′→3′) GTAAGTTTGGATTTGGGG; and exon 4_reverse: (5′→3′) AGAGC-GGTATGAAAGGAA] according to the following cycle conditions: 50° C. for 30 min and 94° C. for 2 min, followed by 15 cycles of 30 sec at 94° C. 30 sec at 52° C. and 40 sec at 72° C.
(§1) [Nested PCR Amplification] […]
[Identification of Exon Skipping Products] […] The hands of target size were collected and analyzed by Sanger Sequencing.

Another series deals with mouse TYR mRNA. The series can be described thus: Nested qPCR for TYR mRNA in B16F10 mouse melanoma cells. The note with it: 1 to 1,000 aM, 5 hours, normalized to no treatment, significant. On the procedure: “ASO 1M” was evaluated by TYR nested qPCR for its ability to induce changes in the mouse TYR mRNA level in B16F10 cells as described below.
[Cell Culture & ASO Treatment] B16F10 cells grown in 60 mm culture dish containing 5 mL DMEM were treated with “ASO 1M” at 0 (negative control), 1, 10,100 or 1000 aM. (2 culture dishes per dose)
[RNA Extraction & cDNA Synthesis by One-step PCR] Following an incubation with “ASO 1M” for 5 hours, total RNA was extracted from cells using “Universal RNA Extraction Kit” (Cat. No. 9767, Takara) according to the manufacturer's instructions. 200 ng of RNA template were used for a 25 μl reverse transcription reaction using One Step RT-PCR kit (Invitrogen, USA) against a set of exon specific primers of [exon 1_forward: (5′→3′) GTAAGTTTGGATTTGGGG; and exon 4_reverse: (5′→3′) AGAGCGGTATGAAAGGAA] according to the following cycle conditions: 50° C. for 30 min and 94° C. for 2 min, followed by 15 cycles of 30 sec at 94° C., 30 sec at 52° C., and 40 sec at. 72° C.
[Nested qPCR Amplification] The cDNA solutions were diluted by 100 times, and 1 μl of each diluted PCR product was subjected to a 20 μl Real-Time PCR reaction with a Taqman probe set spanning the junction of exon 2 and exon 3 (Cat. No. Mm00495818_m1, Thermo Fisher Scientific) according to the following cycle conditions: 95° C. for 3 min followed by 30 cycles 10 sec at 95° C., and 30 sec at 60° C. […]

In a further series the test system is TYR protein. Put plainly: TYR protein expression by western blot in B16F10 mouse melanoma cells. The note with it: 10 zM to 10 aM, 24 hours. On the procedure: “ASO 1M” was evaluated for its ability to down-regulate the TYR protein expression in B16F10 mouse melanoma cells as described below.
B16F10 cells grown in 60 mm culture dish containing 5 mL DMEM were treated with “ASO 1M” at 0 zM (negative control), 10 zM, 100 zM, 1 aM or 10 aM. 24 hours later, cells were washed 2 times with cold PBS (phosphate buffered saline), and then subjected to lysis with 200 μl 1× cell lysis butler (Cat. No. 9803, Cell Signaling Tech) supplemented with 1× protease inhibitors cocktail (Cat. No. P8340, Sigma). 200 μl of each lysate in 1.5 mL e-tube was mixed with […] 5× sample buffer, and boiled at 100° C. for 5 min. 20 μl of the lysate was subjected to electrophoretic separation on a 4-15% gradient TGX gel (Cat No. 456-1086, Bio-Rad), and protein transfer on a 0.45 μm PVDF membrane. The membrane was probed with an anti-TYR antibody (Cat. No. 9319, Cell Signaling Tech) and anti-β-actin antibody (Cat. No. a3845, Sigma).

A further series has as its system human TYR mRNA. Put plainly: Nested qPCR for TYR mRNA in human primary epidermal melanocytes. Conditions: 1 zM to 10 aM, 5 hours, significant at 1 zM and 10 aM. As for the experimental part: “ASO 1” was evaluated by TYR nested qPCR for its ability to induce changes in the TYR mRNA level in human primary epidermal melanocytes as follows.
[Cell Culture & ASO Treatment] Primary epidermal melanocytes (Cat. Number PCS-200-013, ATCC) cells were maintained in Dermal Cell Basal Medium (Cat Number PCS-200-030, ATCC) supplemented with Adult Melanocyte Growth Kit Component (Cat. Number PCS-200-042, ATCC). Melanocytes grown in 60 mm culture dish containing 5 mL culture medium were treated with “ASO 1” at 0 zM (negative control), 1 zM, 100 zM, or 10 aM. (3 culture dishes per concentration)
[RNA Extraction & cDNA Synthesis by One-step PCR] Following an incubation with “ASO 1” for 5 hours, total RNA was extracted using “RNeasy Mini Kit” (Cat. Number 74106, Qiagen) according to the manufacturer's instructions. 200 ng of RNA template was subjected to a 25 μL reverse transcription reaction using Super Script® One-Step RT-PCR kit with Platinum® Taq polymerase (Cat. No. 10928-042, Invitrogen) against a set of exon-specific primers of [exon 1_forward(2): (5′→3′) CTCTTTGTCTGGATGCATT; and exon 5_reverse: (5′→3′) CTGTGGTAATCCTCTTTCT] according to the following cycle conditions specified: 50° C., for 30 min and 94° C. for 2 min, which was followed by 15 cycles of 30 sec at 94° C., 30 sec at 50° C., and 1 min at 72° C.
as §1

[C(1O2)] = PNA monomer with modified cytosine nucleobase C(1O2); [A(5)] = PNA monomer with modified adenine nucleobase A(5); [G(6)] = PNA monomer with modified guanine nucleobase G(6); {Fethoc} = Fethoc N-terminal cap of the PNA; {NH2} = C-terminal amide of the PNA

As for “Fethoc-CA(5)A-A(5)TG-A(5)TC(1O2)-TG(6)T-G-NH2 (CAAATGATCTGTG; all peptide nucleic acid (PNA), [A(5)] at 2, 4, 7, [C(1O2)] at 9, [G(6)] at 11, 5' {Fethoc}, 3' {NH2}; further chemistry not given here) [ASO 1M, 13-mer PNA derivative targeting the 3′ splice site of exon 2 in the mouse TYR pre-mRNA; surrogate for ASO 1]”, in the series with mouse TYR pre-mRNA, the “Exon skipping: PCR products by electrophoresis” value is “yielded only the splice variant TYR mRNA lacking exons 2 and 3”. Also, in the series on mouse TYR mRNA, the “Decrease of full-length TYR mRNA level” value is on record as about 40%. Besides, in the series with TYR protein, the “Band intensity of TYR expression versus negative control” value was “considerably weaker”.
For “Fathoc-CA(5)G-ACA(5)-ATC(1O2)-TG(6)T-A(5)-NH2 (CAGACAATCTGTA; all peptide nucleic acid (PNA), [A(5)] at 2, 6, 13, [C(1O2)] at 9, [G(6)] at 11, 5' {Fethoc}, 3' {NH2}; further chemistry not given here) [ASO 1, 13-mer PNA derivative targeting the 3′ splice site of exon 2 in the human TYR pre-mRNA]”, in the series with human TYR mRNA, the “Decrease of full-length TYR mRNA level” value was about 30%.

Source of the values: patent publication US20230148418A1, “TYROSINASE ANTISENSE OLIGONUCLEOTIDES” (OLIPASS CORPORATION, priority 2017, published 2023).
